For 8 compounds, Kd results are on record in patent US12415834B2, “GhR-binding peptide and composition comprising same” (priority 2021, dated 2025).

The test addresses T1, Recombinant human GhR-Fc protein (Homo sapiens, UniProt P10912).
T1 construct: purchased R&D Systems
As to the kind of experiment: SPR binding assay (Biacore T200, single-cycle kinetics) of peptides against immobilized human GhR-Fc. Summed up: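 Human GhR-Fc amine-coupled to a CM5 chip at pH 4.0; running buffer HBS-EP with 1% DMSO. Peptides measured by single-cycle kinetics on Biacore T200, with solvent correction and baseline subtraction. KD calculated from fitted ka and kd.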
On the technique in general: In SPR one partner is held on a chip, and binding of the other changes the refractive index at the surface.

Where [1] appears, read: SPR, hGhR, Table 2 monocyclic peptides, KD calculated from ka and kd, read-out: KD.

Read-outs that look alike come from different tables or passages of the source. Starred links: 1 amine or outer side, 2 acyl side, 3 side chain; linkers in the order of their positions; H or OH if unused. Positions of bridges follow the written chain, without caps; N, C: chain ends. Non-standard residues stand in square brackets, D forms with d. Residues, ends and D or L forms follow the SMILES beside them. Groups on a side chain read outwards from the residue. *: point of attachment. Trp(5-OMe) = COc1ccc2[nH]cc(C[C@H](N)C(=O)O)c2c1; Butanoyl(4-(4-I-phenyl)) = O=C(CCCc1ccc(I)cc1)*; Trp(5-OH) = N[C@@H](Cc1c[nH]c2ccc(O)cc12)C(=O)O; Phe(4-COOH) = N[C@@H](Cc1ccc(C(=O)O)cc1)C(=O)O; Piperazinyl(4-CH2COOH) = O=C(O)CN1CCN(*)CC1; X7 = O=C(O)CN1CCC(N[*:1])(C(=O)[*:2])CC1; γGlu = O=C(O)[C@H](CCC(=O)[*:2])N[*:1]; Hexanoyl(6-Ph) = O=C(CCCCCc1ccccc1)*; X9 = O=C(CCCc1ccc(-c2ccccc2)cc1)*; NMeK = CN[C@@H](CCCCN)C(=O)O; Aib = CC(C)(N)C(=O)O; CO = O=C([*:1])[*:2]

T1 sequence (P10912 with tags, fused parts or gaps limits assumed): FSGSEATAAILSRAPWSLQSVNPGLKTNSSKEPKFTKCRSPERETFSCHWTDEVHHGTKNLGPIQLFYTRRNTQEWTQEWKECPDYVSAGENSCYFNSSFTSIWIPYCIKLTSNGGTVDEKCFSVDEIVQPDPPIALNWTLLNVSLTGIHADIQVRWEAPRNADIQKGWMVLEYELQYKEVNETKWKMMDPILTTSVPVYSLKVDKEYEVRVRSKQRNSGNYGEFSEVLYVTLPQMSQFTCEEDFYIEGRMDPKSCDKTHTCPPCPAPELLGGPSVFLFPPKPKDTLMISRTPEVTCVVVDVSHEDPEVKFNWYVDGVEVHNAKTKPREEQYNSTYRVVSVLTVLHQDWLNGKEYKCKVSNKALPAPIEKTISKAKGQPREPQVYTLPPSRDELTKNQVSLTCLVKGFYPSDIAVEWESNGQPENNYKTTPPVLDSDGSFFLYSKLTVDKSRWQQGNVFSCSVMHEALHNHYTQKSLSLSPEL

In the case of `COc1ccc2[nH]cc(C[C@@H]3NC(=O)[C@H](CC(N)=O)NC(=O)[C@H](CO)NC(=O)[C@H](C(C)C)NC(=O)[C@H](C(C)C)NC(=O)[C@H](CCCCNC(=O)CC[C@H](NC(=O)CC[C@H](NC(=O)CCCc4ccc(I)cc4)C(=O)O)C(=O)O)N(C)C(=O)[C@H](Cc4ccc(O)cc4)NC(=O)CSC[C@@H](C(N)=O)NC(=O)[C@H](C(C)C)NC(=O)C(C)(C)NC(=O)[C@H](Cc4c[nH]c5ccc(O)cc45)NC(=O)[C@H](CCCCNC(=O)N4CCN(CC(=O)O)CC4)NC(=O)[C@H](Cc4ccc(C(=O)O)cc4)NC3=O)c2c1` [Compound 47] ({CH2CO}-Y[NMeK]([γGlu-γGlu-Butanoyl(4-(4-I-phenyl))])VVSN[Trp(5-OMe)][Phe(4-COOH)]K([CO-Piperazinyl(4-CH2COOH)])[Trp(5-OH)][Aib]VC-NH2; thioether N-13), under setting [1], the Kd was 7.38 nM.
Still for that read-out and setting: next, `COc1ccc2[nH]cc(C[C@@H]3NC(=O)[C@H](CC(N)=O)NC(=O)[C@H](CO)NC(=O)[C@H](C(C)C)NC(=O)[C@H](C(C)C)NC(=O)[C@H](CCCCNC(=O)CC[C@H](NC(=O)CC[C@H](NC(=O)CCCc4ccc(I)cc4)C(=O)O)C(=O)O)N(C)C(=O)[C@H](Cc4ccc(O)cc4)NC(=O)CSC[C@@H](C(N)=O)NC(=O)[C@H](C(C)C)NC(=O)C4(CCN(CC(=O)O)CC4)NC(=O)[C@H](Cc4c[nH]c5ccc(O)cc45)NC(=O)[C@H](CCCCN)NC(=O)[C@H](Cc4ccc(C(=O)O)cc4)NC3=O)c2c1` [Compound 50] ({CH2CO}-Y[NMeK]([γGlu-γGlu-Butanoyl(4-(4-I-phenyl))])VVSN[Trp(5-OMe)][Phe(4-COOH)]K[Trp(5-OH)][X7]VC-NH2; thioether N-13): 4.13 nM; `COc1ccc2[nH]cc(C[C@@H]3NC(=O)[C@H](CC(N)=O)NC(=O)[C@H](CO)NC(=O)[C@H](C(C)C)NC(=O)[C@H](C(C)C)NC(=O)[C@H](CCCCNC(=O)CC[C@H](NC(=O)CCCc4ccc(I)cc4)C(=O)O)N(C)C(=O)[C@H](Cc4ccc(O)cc4)NC(=O)CSC[C@@H](C(=O)NCC(=O)N4CCC[C@H]4C(=O)N[C@H](CO)C(=O)N[C@H](CO)C(=O)N[C@H](CO)C(N)=O)NC(=O)[C@H](C(C)C)NC(=O)C4(CCN(CC(=O)O)CC4)NC(=O)[C@H](Cc4c[nH]c5ccc(O)cc45)NC(=O)[C@H](CCCCN)NC(=O)[C@H](Cc4ccc(C(=O)O)cc4)NC3=O)c2c1` [Compound 51] ({CH2CO}-Y[NMeK]([γGlu-Butanoyl(4-(4-I-phenyl))])VVSN[Trp(5-OMe)][Phe(4-COOH)]K[Trp(5-OH)][X7]VCGP[dS][dS][dS]-NH2; thioether N-13): 7.57 nM; `COc1ccc2[nH]cc(C[C@@H]3NC(=O)[C@H](CC(N)=O)NC(=O)[C@H](CO)NC(=O)[C@H](C(C)C)NC(=O)[C@H](C(C)C)NC(=O)[C@H](CCCCNC(=O)CC[C@H](NC(=O)CC[C@H](NC(=O)CCCc4ccc(I)cc4)C(=O)O)C(=O)O)N(C)C(=O)[C@H](Cc4ccc(O)cc4)NC(=O)CSC[C@@H](C(N)=O)NC(=O)[C@H](C(C)C)NC(=O)C(C)(C)NC(=O)[C@H](Cc4c[nH]c5ccc(O)cc45)NC(=O)[C@H](CCCCN)NC(=O)[C@H](Cc4ccc(C(=O)O)cc4)NC3=O)c2c1` [Compound 53] ({CH2CO}-Y[NMeK]([γGlu-γGlu-Butanoyl(4-(4-I-phenyl))])VVSN[Trp(5-OMe)][Phe(4-COOH)]K[Trp(5-OH)][Aib]VC-NH2; thioether N-13): 3.36 nM.
Still for that read-out and setting: next, `COc1ccc2[nH]cc(C[C@@H]3NC(=O)[C@H](CC(N)=O)NC(=O)[C@H](CO)NC(=O)[C@H](C(C)C)NC(=O)[C@H](C(C)C)NC(=O)[C@H](CCCCNC(=O)CC[C@H](NC(=O)CCCc4ccc(I)cc4)C(=O)O)N(C)C(=O)[C@H](Cc4ccc(O)cc4)NC(=O)CSC[C@@H](C(=O)NCC(=O)N4CCC[C@H]4C(=O)N[C@H](CO)C(=O)N[C@H](CO)C(=O)N[C@H](CO)C(N)=O)NC(=O)[C@H](C(C)C)NC(=O)C(C)(C)NC(=O)[C@H](Cc4c[nH]c5ccc(O)cc45)NC(=O)[C@H](CCCCN)NC(=O)[C@H](Cc4ccc(C(=O)O)cc4)NC3=O)c2c1` [Compound 54] ({CH2CO}-Y[NMeK]([γGlu-Butanoyl(4-(4-I-phenyl))])VVSN[Trp(5-OMe)][Phe(4-COOH)]K[Trp(5-OH)][Aib]VCGP[dS][dS][dS]-NH2; thioether N-13): 2.08 nM.
Take `COc1ccc2[nH]cc(C[C@@H]3NC(=O)[C@H](CC(N)=O)NC(=O)[C@H](CO)NC(=O)[C@H](C(C)C)NC(=O)[C@H](C(C)C)NC(=O)[C@H](CCCCNC(=O)CC[C@H](NC(=O)CC[C@H](NC(=O)CCCc4ccc(I)cc4)C(=O)O)C(=O)O)N(C)C(=O)[C@H](Cc4ccc(O)cc4)NC(=O)CSC[C@@H](C(=O)NCC(=O)N4CCC[C@H]4C(=O)N[C@H](CO)C(=O)N[C@H](CO)C(=O)N[C@H](CO)C(N)=O)NC(=O)[C@H](C(C)C)NC(=O)C(C)(C)NC(=O)[C@H](Cc4c[nH]c5ccc(O)cc45)NC(=O)[C@H](CCCCN)NC(=O)[C@H](Cc4ccc(C(=O)O)cc4)NC3=O)c2c1` [Compound 55] ({CH2CO}-Y[NMeK]([γGlu-γGlu-Butanoyl(4-(4-I-phenyl))])VVSN[Trp(5-OMe)][Phe(4-COOH)]K[Trp(5-OH)][Aib]VCGP[dS][dS][dS]-NH2; thioether N-13): the Kd under setting [1] is 2.83 nM.
For the compound `COc1ccc2[nH]cc(C[C@@H]3NC(=O)[C@H](CC(N)=O)NC(=O)[C@H](CO)NC(=O)[C@H](C(C)C)NC(=O)[C@H](C(C)C)NC(=O)[C@H](CCCCNC(=O)CC[C@H](NC(=O)CCCc4ccc(-c5ccccc5)cc4)C(=O)O)N(C)C(=O)[C@H](Cc4ccc(O)cc4)NC(=O)CSC[C@@H](C(=O)NCC(=O)N4CCC[C@H]4C(=O)N[C@H](CO)C(=O)N[C@H](CO)C(=O)N[C@H](CO)C(N)=O)NC(=O)[C@H](C(C)C)NC(=O)C(C)(C)NC(=O)[C@H](Cc4c[nH]c5ccc(O)cc45)NC(=O)[C@H](CCCCN)NC(=O)[C@H](Cc4ccc(C(=O)O)cc4)NC3=O)c2c1` [Compound 56] ({CH2CO}-Y[NMeK]([γGlu-X9])VVSN[Trp(5-OMe)][Phe(4-COOH)]K[Trp(5-OH)][Aib]VCGP[dS][dS][dS]-NH2; thioether N-13), the Kd worked out at 2.87 nM.
In the case of `COc1ccc2[nH]cc(C[C@@H]3NC(=O)[C@H](CC(N)=O)NC(=O)[C@H](CO)NC(=O)[C@H](C(C)C)NC(=O)[C@H](C(C)C)NC(=O)[C@H](CCCCNC(=O)CC[C@H](NC(=O)CCCCCc4ccccc4)C(=O)O)N(C)C(=O)[C@H](Cc4ccc(O)cc4)NC(=O)CSC[C@@H](C(=O)NCC(=O)N4CCC[C@H]4C(=O)N[C@H](CO)C(=O)N[C@H](CO)C(=O)N[C@H](CO)C(N)=O)NC(=O)[C@H](C(C)C)NC(=O)C(C)(C)NC(=O)[C@H](Cc4c[nH]c5ccc(O)cc45)NC(=O)[C@H](CCCCN)NC(=O)[C@H](Cc4ccc(C(=O)O)cc4)NC3=O)c2c1` [Compound 57] ({CH2CO}-Y[NMeK]([γGlu-Hexanoyl(6-Ph)])VVSN[Trp(5-OMe)][Phe(4-COOH)]K[Trp(5-OH)][Aib]VCGP[dS][dS][dS]-NH2; thioether N-13), the equilibrium dissociation constant (Kd) under setting [1] is 1.25 nM.

One may read the Kd as the concentration at which binding is half-saturated.
